Measured values from patent publication US10947511B2, “Differentiation of human embryonic stem cells into pancreatic endocrine cells using thyroid hormone and/or alk5, an inhibitor of tgf-beta type 1 receptor” (Janssen Biotech, Inc., priority 2012, dated 2021).
“Also recorded” adds a separate entry of the source.

Experiments:
[1] = tested on: human embryonic stem cell line H1; assay: Immunostaining for HB9 and NKX6.1 at Stage 6, control vs T3 treated cultures (Example 2); assay type: cell-based
Method: (§1) All primers were purchased from Applied Biosystems.
(§2) Cultures were differentiated into cells expressing markers characteristic of pancreatic endoderm/endocrine precursor cells by the protocol outlined below. • a. […] SD208 is 2-(5-Chloro-2-fluorophenyl)pteridin-4-yl]pyridin-4-yl-amine) having the structure of formula I, and disclosed in Molecular Pharmacology 2007, 72:152-161. SD208 is a 2,4-disubstituted pteridine, ATP-competitive inhibitor of the TGF-βR I kinase.
(§3) In some cultures, 1 μM T3 (T6397, Sigma, MO) was added at Stages 4 through 6. At the end of Stages 4 through 6, the control and treated cultures were analyzed by FACS and immunostaining. Furthermore, mRNA was collected for the control and treated cultures at Stages 2 through 6.

[2] = tested on: human embryonic stem cell line H1; assay: Immunostaining for NKX6.1 and HB9 at Stage 6 day 6, T3 dose response (Example 4); assay type: cell-based; conditions: 0-1000 nM T3 at Stages 5 and 6, dose dependent
Excerpt: as §1
Forty-eight hours post-seeding, cultures were washed in incomplete PBS (phosphate buffered saline without Mg or Ca). Cultures were differentiated into cells expressing markers characteristic of pancreatic endoderm/endocrine precursor cells by the protocol outlined below. • a.

[3] = tested on: human embryonic stem cell line H1; assay: Real-time PCR of marker genes in H1 cells differentiated as in Example 2, T3 added at Stages 4 through 6; assay type: cell-based
Method: as §1, §2, §3

[4] = T3 vs T4; cited from earlier work
[5] = in the blood; cited from earlier work
[6] = 1 μM T3 added at Stages 4 through 6, real-time PCR
[7] = 1 μM T3 added at Stages 4 through 6, real-time PCR vs control
[8] = 1 μM T3 addition, real-time PCR

SMILES | number of HB9 positive cells ([1]; Stage 6, T3 treated group vs control) | number of NKX6.1 positive cells showing expression of HB9 ([1]; T3 treated cultures) | number of HB9 positive cells in the NKX6.1 positive pancreatic endoderm precursor cells [2] | insulin expression ([3]; 1 μM T3 added at Stages 4 through 6, at Stage 5, real-time PCR) | NKX2.2 expression [3, 6] | NKX6.1 expression [3, 6] | PDX1 expression [3, 6] | ghrelin expression [3, 7] | glucagon expression [3, 7] | somatostatin expression [3, 7] | CDX2 (intestine marker) expression [3, 8] | SOX2 (stomach marker) expression [3, 8] | albumin (liver marker) expression [3, 8] | potency relative to T4 [4] | half-life relative to T3 [5]
N[C@@H](Cc1cc(I)c(Oc2ccc(O)c(I)c2)c(I)c1)C(=O)O [T3, triiodothyronine] | increases; also recorded: significant increase | increased number | significantly enhanced | moderately increasing | significantly decreased | apparently not affecting | apparently not affecting | significantly down regulated | significantly down regulated | significantly down regulated | not affecting | suppressed | suppressed | three to four times more potent than T4 | –
N[C@@H](Cc1cc(I)c(Oc2cc(I)c(O)c(I)c2)c(I)c1)C(=O)O [T4, thyroxine] | – | – | – | – | – | – | – | – | – | – | – | – | – | – | longer half-life than T3
